A short description of the series: Critical micelle concentration of surfactant. It is filed as physicochemical. The following applies: at 25° C.

With `CCCCCCCCCCCCOS(=O)(=O)[O-].[Na+]` [SDS, sodium dodecyl sulfate], the critical micelle concentration was 8.1 mM.

Source of the values: patent US20020071869A1, “Microparticle composition and method” (priority 2000, published 2002).
